# Assay results published in patent US20050112573A1, “Method of detecting toxic substance” (priority 2001, published 2005).
# Test system: yeast genes (level of expressed mRNA)
# Experiment: DNA chip analysis of expressed mRNA of yeast genes after 2 h culture with a toxic chemical substance
# Format: cell-based, Saccharomyces cerevisiae S288C
# Conditions: for The level of expressed mRNA in the presence of chemical substance/ (ratio to absence): transport facilitation protein gene; for The level of expressed mRNA in the presence of chemical substance/: ratio to no chemical; for The level of expressed mRNA in the presence of chemical substance/ (ratio to absence of chemical substance): stress protein genes, DNA chip
# Experimental: Yeast (Saccharomyces cerevtisiae S288C (α SUC2mal mel gap2 CUP1)) were cultured at 25° C. on YPD medium (yeast extract 1%, polypepton 2%, glucose 2%). One of toxic chemical substances was added to the cell at logarithmic growth phase, and the cell was further cultured for two hours. Cell was cultured without any chemical substance in the same condition, and was used as control. Concentrations of the chemical substances were defined to inhibit the growth of the yeast but not lead to death.
# After the completion of cultivation, the culture was centrifuged to collect the cells. To the cells, sodium acetate buffer (50 mM sodium acetate, 10 mM EDTA, 1% SDS) was added, and the mixture was shaken at 65° C. for five minutes, followed by returning to room temperature, and obtaining the supernatant, which procedure was repeated two times. To the supernatant, ½ amount of a solution of phenol/chloroform was added, and the mixture was centrifuged to give a supernatant, which was added with an equal amount of chloroform, and the mixture was centrifuged to give a supernatant. To the supernatant, an equal amount of isopropanol containing 0.3 M sodium acetate was added, and the mixture was allowed to stand at room temperature for 30 minutes, after which the mixture was centrifuged to give a sediment of the whole RNAs. Seventy % ethanol was added to the sediment, and the mixture was again centrifuged to give a sediment, which was then dried and dissolved in water. mRNA was isolated from the whole RNAs as followings. In view of the fact that a poly A chain is attached to the 3′ terminus of mRNA, a polynucleotide having a poly T structure which was immobilized on the surface of latex beads was used to trap the mRNA, and then the mRNA was washed and eluted with spine column (Oligotex-dT30<Super>mRNA Purification Kit, Takara). Reverse transcription of the mRNA was conducted with a reverse transcriptase (Super Script II Reverse Transcriptase; catalogue No. 18064-014, GibcoBRL) using fluorescence-labeled nucleotides to give cDNAs that were introduced with Cy3-dUTP or Cy5-dUTP during the reverse transcription.
# The labeled cDNAs were dissolved in TE buffer (10 mM Tris-HCl/1 mM EDTA, pH8.0), and the solution was dropped on the DNA chip containing the whole genes of yeast (DNA Chip Research Inc. Japan) so that the cDNAs were hybridized on the DNA chip at 65° C. for over 12 hours. The fluoresces intensity of the DNA chip was read with a scanner, and the ratio relative to the fluorescence intensity resulting from the absence of chemical substance was estimated as the following, which is shown in Tables 1 to 9: [formula]
# In the Tables, “Intensity” indicated in the rightmost column is a value of the level of expressed mRNA of each gene in control cells as divided by the average level of the expressions of the whole genes.
substance,measurement,setting,value
sodium dodecylbenzosulfonate [(17)],The level of expressed mRNA in the presence of chemical substance/in the absence of chemical substance,yeast gene YLR345W,1.2
same,The level of expressed mRNA in the presence of chemical substance/ (ratio to absence),yeast gene YLR348C,1.1
same,"The level of expressed mRNA in the presence of chemical substance/ (in its absence), gene YLR351C","yeast gene YLR351C, ratio of DNA chip fluorescence intensity to that without chemical substance",1.3
same,The level of expressed mRNA in the presence of chemical substance/The level of expressed mRNA in the absence of chemical substance,yeast gene YLR356W,1.1
same,The level of expressed mRNA in the presence of chemical substance/The level of expressed mRNA in the absence of chemical substance,yeast gene YLR362W,1.2
same,"The level of expressed mRNA in the presence of chemical substance/ (in its absence), gene YLR375W","yeast gene YLR375W, ratio of DNA chip fluorescence intensity to that without chemical substance",1.0
same,The level of expressed mRNA in the presence of chemical substance/ (ratio to absence),yeast gene YLR378C,0.9
same,The level of expressed mRNA in the presence of chemical substance/The level of expressed mRNA in the absence of chemical substance,yeast gene YLR391W,1.4
same,The level of expressed mRNA in the presence of chemical substance/The level of expressed mRNA in the absence of chemical substance,yeast gene YLR429W,1.0
same,The level of expressed mRNA in the presence of chemical substance/in the absence of chemical substance,yeast gene YML004C,1.5
same,The level of expressed mRNA in the presence of chemical substance/,yeast gene YML068W,1.0
same,The level of expressed mRNA in the presence of chemical substance/ (ratio to absence),yeast gene YML116W,1.0
same,"The level of expressed mRNA in the presence of chemical substance/ in its absence, gene YML129C","yeast gene YML129C, energy system protein genes, 2 h culture with the chemical, ratio to control without chemical",1.3
same,"The level of expressed mRNA in the presence of chemical substance/ (ratio to absence), gene YML129C","yeast gene YML129C, mitochondria-located protein genes, 2 h culture with chemical",1.3
same,The level of expressed mRNA in the presence of chemical substance/in the absence of chemical substance,yeast gene YML131W,2.5
same,The level of expressed mRNA in the presence of chemical substance/The level of expressed mRNA in the absence of chemical substance,yeast gene YMR004W,0.9
same,"The level of expressed mRNA in the presence of chemical substance/ (ratio to absence), gene YMR023C","yeast gene YMR023C, mitochondria-located protein genes, 2 h culture with chemical",1.1
same,The level of expressed mRNA in the presence of chemical substance/,yeast gene YMR034C,1.8
same,The level of expressed mRNA in the presence of chemical substance/,yeast gene YMR041C,0.8
same,The level of expressed mRNA in the presence of chemical substance/ (ratio to absence),yeast gene YMR056C,1.0
same,The level of expressed mRNA in the presence of chemical substance/ (ratio to absence),yeast gene YMR058W,0.6
same,The level of expressed mRNA in the presence of chemical substance/The level of expressed mRNA in the absence of chemical substance,yeast gene YMR094W,1.0
same,The level of expressed mRNA in the presence of chemical substance/The level of expressed mRNA in the absence of chemical substance,yeast gene YMR104C,2.8
same,The level of expressed mRNA in the presence of chemical substance/,yeast gene YMR178W,1.1
same,The level of expressed mRNA in the presence of chemical substance/ (ratio to absence of chemical substance),yeast gene YMR186W,0.7
same,The level of expressed mRNA in the presence of chemical substance/ (ratio to absence),yeast gene YMR203W,0.8
same,The level of expressed mRNA in the presence of chemical substance/The level of expressed mRNA in the absence of chemical substance,yeast gene YMR219W,1.1
same,The level of expressed mRNA in the presence of chemical substance/The level of expressed mRNA in the absence of chemical substance,yeast gene YMR226C,1.6
same,The level of expressed mRNA in the presence of chemical substance/,yeast gene YMR253C,1.2
same,"The level of expressed mRNA in the presence of chemical substance/ in its absence, gene YMR267W","yeast gene YMR267W, energy system protein genes, 2 h culture with the chemical, ratio to control without chemical",0.9
same,"The level of expressed mRNA in the presence of chemical substance/ (ratio to absence), gene YMR267W","yeast gene YMR267W, mitochondria-located protein genes, 2 h culture with chemical",0.9
same,"The level of expressed mRNA in the presence of chemical substance/ in its absence, gene YMR267W","yeast gene YMR267W, ratio of DNA chip fluorescence intensity to that without chemical substance",0.9
same,The level of expressed mRNA in the presence of chemical substance/The level of expressed mRNA in the absence of chemical substance,yeast gene YMR275C,0.9
same,The level of expressed mRNA in the presence of chemical substance/The level of expressed mRNA in the absence of chemical substance,yeast gene YMR276W,1.2
same,"The level of expressed mRNA in the presence of chemical substance/ (in its absence), gene YMR278W","yeast gene YMR278W, ratio of DNA chip fluorescence intensity to that without chemical substance",1.0
same,"The level of expressed mRNA in the presence of chemical substance/ (in its absence), gene YMR293C","yeast gene YMR293C, ratio of DNA chip fluorescence intensity to that without chemical substance",0.8
same,The level of expressed mRNA in the presence of chemical substance/The level of expressed mRNA in the absence of chemical substance,yeast gene YMR314W,1.3
same,The level of expressed mRNA in the presence of chemical substance/The level of expressed mRNA in the absence of chemical substance,yeast gene YNL006W,1.0
same,The level of expressed mRNA in the presence of chemical substance/The level of expressed mRNA in the absence of chemical substance,yeast gene YNL007C,1.1
same,"The level of expressed mRNA in the presence of chemical substance/ (in its absence), gene YNL025C","yeast gene YNL025C, ratio of DNA chip fluorescence intensity to that without chemical substance",0.7
same,The level of expressed mRNA in the presence of chemical substance/ (ratio to absence),yeast gene YNL055C,1.2
same,The level of expressed mRNA in the presence of chemical substance/ (ratio to absence of chemical substance),yeast gene YNL064C,0.7
same,The level of expressed mRNA in the presence of chemical substance/in the absence of chemical substance,yeast gene YNL071W,1.0
same,"The level of expressed mRNA in the presence of chemical substance/ (ratio to absence), gene YNL073W","yeast gene YNL073W, mitochondria-located protein genes, 2 h culture with chemical",0.8
same,The level of expressed mRNA in the presence of chemical substance/The level of expressed mRNA in the absence of chemical substance,yeast gene YNL093W,3.0
same,The level of expressed mRNA in the presence of chemical substance/,yeast gene YNL122C,1.0
same,The level of expressed mRNA in the presence of chemical substance/ (ratio to absence),yeast gene YNL142W,1.0
same,"The level of expressed mRNA in the presence of chemical substance/ (in its absence), gene YNL192W","yeast gene YNL192W, ratio of DNA chip fluorescence intensity to that without chemical substance",2.3
